Reference: patent US20240059710A1, “KRAS G12D Inhibitors” (Jacobio Pharmaceuticals Co., Ltd., priority 2020, published 2024)
Like-named read-outs stand apart in the source and are kept apart here.

Assays:
[1] = tested on: AsPC-1; test: Cell growth inhibition assay (AsPC-1); type: cell-based; conditions: AsPC-1, 6 days incubation, CellTiter-Glo
Description: (§1) 4. Cell Growth Inhibition Assay
AsPC-1 cultured in RPMI-1640 medium (Gibco) containing 10% fetal bovine serum (Gibco). Cells in culture medium were plated in 96-well plates at a concentration of 1000 cells/well ([…]) and allowed to attach overnight.
(§2) The next day, compounds were diluted in culture medium and added to the plates. After 6 days incubation in a 37° C./5% CO2 cell incubator, the cell viability was detected by CellTiter-Glo® Luminescent Cell Viability Assay kit (Promega). Luminescent signals were read on Tecan Spark multimode microplate reader and analyzed using a 4-parameter logistic model to calculate IC50 values.

[2] = target: T1, GppNp-loaded HIS-KRAS (G12D, aa 1-169) / cRAF RBD (Homo sapiens, UniProt P01116, G12D); test: GTP-KRAS and cRAF interaction assay; type: binding; conditions: HTRF, 2 hours at 25° C.
T1 construct: GppNp-loaded HIS-KRAS (G12D, aa 1-169)
Description: 2. GTP-KRAS and cRAF Interaction Assay
GppNp-loaded HIS-KRAS (G12D, aa 1-169) was pre-incubated with a compound in the presence of 200 µM GTP in a 384-well plate (Greiner) for 15 min, then cRAF RBD (GST tag, aa 50-132, CreativeBioMart), MAb Anti GST-d2 (Cisbio) and MAb Anti 6HIS-Tb cryptate Gold (Cisbio) were added to the assay wells (Final concentration: 2.0 nM GppNp-loaded HIS-KRAS (G12D), 100 μM GTP, 35 nM cRAF RBD, 1 μg/mL MAb Anti GST-d2, 52.5 ng/mL MAb Anti 6HIS-Tb cryptate Gold) and incubated for 2 hours at 25° C. Wells containing same percent of DMSO served as vehicle control, and wells without KRAS served as low control. HTRF signals were read on Tecan Spark multimode microplate reader and HTRF ratios were calculated under manufacturer's instructions. The percent of activation of compounds treated wells were normalized between vehicle control and low control (% Activation=(HTRF ratioCompound treated−HTRF ratioLow control)/(HTRF ratioVehicle control−HTRF ratioLow control)*100). Then the data were analyzed either by fitting a 4-parameter logistic model or by Excel to calculate IC50 values.

[3] = tested on: AGS; test: Cell growth inhibition assay (AGS); type: cell-based; conditions: 6 days incubation, CellTiter-Glo
Description: as §1
AGS cultured in F12K medium (Gibco) containing 10% fetal bovine serum (Gibco). Cells in culture medium were plated in 96-well plates at a concentration of 500 cells/well ([…]) and allowed to attach overnight.
as §2

[4] = tested on: AGS cells expressing KRAS G12D; test: Phospho-ERK1/2(THR202/TYR204) HTRF assay; type: cell-based; conditions: 2 hours incubation, read-out: AGS p-ERK IC50
Description: AGS cells expressing KRAS G12D were cultured in F12K medium (Gibco) containing 10% fetal bovine serum (Gibco). The AGS cells in culture medium were seeded in 96-well plates at a concentration of 40,000 cells/well and then put in a 37° C./5% CO2 cell incubator to incubate overnight. The next day, culture medium was removed and the compound diluted in assay medium (F12K, 0.1% FBS) was added in each well. After 2 hours incubation in a 37° C./5% CO2 cell incubator, the assay medium in 96-well plates was removed, then 50 μL of 1× blocking reagent-supplemented lysis buffer (Cisbio) was added and the plates were incubated at 25° C. for 45 min with shaking. 10 μL of cell lysates from the 96-well plates were transferred to a 384-well plate (Greiner) containing 2.5 μL/well HTRF® pre-mixed antibodies (Cisbio 64AERPEH). Incubate 4 hours at 25° C. and then read HTRF signals on Tecan Spark multimode microplate reader. The data were analyzed using a 4-parameter logistic model to calculate IC50 values.

[5] = target: T2, GDP-loaded HIS-KRAS (G12D, aa 1-169) (Homo sapiens, UniProt P01116, G12D); test: SOS1 catalyzed nucleotide exchange assay; type: biochemical; conditions: SOS1 ExD, TR-FRET, 4 hours at 25° C.
T2 construct: GDP-loaded HIS-KRAS (G12D, aa 1-169)
Description: 1. SOS1 Catalyzed Nucleotide Exchange Assay
GDP-loaded HIS-KRAS (G12D, aa 1-169) was pre-incubated with a compound in the presence of 10 nM GDP in a 384-well plate (Greiner) for 15 min, then purified SOS1 ExD (Flag tag, aa 564-1049), BODIPY™ FL GTP (Invitrogen) and MAb (monoclonal antibody) Anti 6HIS-Tb cryptate Gold (Cisbio) were added to the assay wells (Final concentration: 1.5 nM GDP-loaded HIS-KRAS (G12D), 5 nM GDP, 0.5 μM SOS1 ExD, 80 nM BODIPY™ FL GTP, 52.5 ng/mL MAb Anti 6HIS-Tb cryptate Gold) and incubated for 4 hours at 25° C. Wells containing same percent of DMSO served as vehicle control, and wells without KRAS served as low control. TR-FRET signals were read on Tecan Spark multimode microplate reader. The parameters were F486: Excitation 340 nm, Emission 486 nm, Lag time 100 μs, Integration time 200 μs; F515: Excitation 340 nm, Emission 515 nm, Lag time 100 μs, Integration time 200 μs. TR-FRET ratios for each individual wells were calculated by equation: TR-FRET ratio=(Signal F515/Signal F486)*10000. The percent of activation of compounds treated wells were normalized between vehicle control and low control (% Activation=(TR-FRET ratioCompound treated−TR-FRET ratioLow control)/(TR-FRET ratioVehicle control−TR-FRET ratioLow control)*100%). Then the data were analyzed either by fitting a 4-parameter logistic model or by Excel to calculate IC50 values.

T2 sequence (P01116 1-169 isoform P01116-2 G12D): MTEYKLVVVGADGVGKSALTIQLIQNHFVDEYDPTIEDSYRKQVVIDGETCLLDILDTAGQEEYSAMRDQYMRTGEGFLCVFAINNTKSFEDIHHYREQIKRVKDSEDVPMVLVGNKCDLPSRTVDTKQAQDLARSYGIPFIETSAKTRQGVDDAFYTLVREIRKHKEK
T1 sequence (P01116 1-169 isoform P01116-2 G12D): as above

SMILES	IC50 [1]	IC50 [2]	IC50 [3]	IC50 [4]	IC50 [5]	IC50 ([1]; Homo sapiens, ASPC1, 144 h)	IC50 ([3]; Homo sapiens, 144 h)	IC50 ([4]; Homo sapiens)
C#Cc1cccc2cc(O)cc(-c3c(F)cc4c(N5CC6CCC(C5)N6)nc(OCC5(CN6CCOCC6)CC5)nc4c3F)c12 (single isomer, unassigned) [Compound 41B]	3.84 nM	50.4 nM	0.671 nM	1.01 nM	6.9 nM	–	–	–
N#Cc1c(N)sc2c(F)ccc(-c3ccc4c(N5CC6CCC(C5)N6)nc(OCC5(CN6CCOCC6)CC5)nc4c3F)c12 [Compound 95]	–	388 nM	–	–	3.28 nM	572 nM	52.7 nM	> 200 nM
Cc1ccc2cc(O)cc(-c3ccc4c(N5CC6CCC(C5)N6)nc(OCC5(CN6CCOCC6)CC5)nc4c3F)c2c1 [Compound 64]	178 nM	329 nM	73 nM	61.8 nM	45.4 nM	–	–	–
C#Cc1cccc2cc(O)cc(-c3ccc4c(N5CC6CCC(C5)N6)nc(OCC5(CN6CCOCC6)CC5)nc4c3F)c12 [Compound 34]	–	12.6 nM	–	–	8.73 nM	19.1 nM	11.1 nM	2.16 nM
C#Cc1cccc2cc(O)cc(-c3c(F)cc4c(N5CC6CCC(C5)N6)nc(OCC5(CN6CCOCC6)CC5)nc4c3F)c12 [Compound 41]	–	211 nM	–	–	9.17 nM	18.7 nM	6.96 nM	2.63 nM
C#Cc1cccc2cc(O)cc(-c3ccc4c(N5CC6CCC(C5)N6)nc(OCC5(CN6CCC(OC)CC6)CC5)nc4c3F)c12 [Compound 117]	–	129 nM	–	–	17.1 nM	85.6 nM	12.4 nM	10.3 nM
C#Cc1c(F)ccc2cc(O)cc(-c3ccc4c(N5CC6CCC(C5)N6)nc(OC[C@@]56CCCN5C[C@H](F)C6)nc4c3F)c12 [Compound 67]	–	20.3 nM	–	–	8.77 nM	34.1 nM	6.92 nM	3.72 nM
C#Cc1cccc2cc(O)cc(-c3ccc4c(N5CC6CCC(C5)N6)nc(OCC5(CN6CCCC6)CC5)nc4c3F)c12 [Compound 116]	–	110 nM	–	–	12.5 nM	189 nM	20.8 nM	10.8 nM
C#Cc1cccc2cc(O)cc(-c3c(Cl)cc4c(N5CC6CCC(C5)N6)nc(OCC5(CN6CCOCC6)CC5)nc4c3Cl)c12 [Compound 107]	–	524 nM	–	–	4.11 nM	282 nM	107 nM	140 nM
C#Cc1cccc2cc(O)cc(-c3ccc4c(N5CC6CCC(C5)N6)nc(OCC5(CN6CC[C@@H](F)C6)CC5)nc4c3F)c12 [Compound 114]	–	120 nM	–	–	12.3 nM	18.7 nM	4.47 nM	9.02 nM
C#Cc1cccc2cc(O)cc(-c3c(Cl)cc4c(N5CC6CCC(C5)N6)nc(OCC5(CN6CCOCC6)CC5)nc4c3F)c12 (single isomer, unassigned) [Compound 35B]	39.5 nM	111 nM	13.4 nM	6.2 nM	5.94 nM	–	–	–
C#Cc1cccc2cc(O)cc(-c3c(Cl)cc4c(N5CC6CCC(C5)N6)nc(OCC5(CN6CCOCC6)CC5)nc4c3F)c12 [Compound 35]	–	113 nM	–	–	10.4 nM	99.3 nM	8.58 nM	32.2 nM
C#Cc1cccc2cc(O)cc(-c3c(SC(F)(F)F)cc4c(N5CC6CCC(C5)N6)nc(OCC5(CN6CCOCC6)CC5)nc4c3F)c12 (single isomer, unassigned) [Compound 59B]	5.54 nM	6.28 nM	6 nM	10.8 nM	1.65 nM	–	–	–
C#Cc1cccc2cc(O)cc(-c3cc4nc(OC[C@@]56CCCN5C[C@H](F)C6)nc(N5CC6CCC(C5)N6)c4cc3F)c12 [Compound 79]	–	130 nM	–	–	4.81 nM	109 nM	7.75 nM	6.66 nM
C#Cc1cccc2cc(O)cc(-c3c(C(F)(F)F)cc4c(N5CC6CCC(C5)N6)nc(OCC5(CN6CCOCC6)CC5)nc4c3F)c12 (single isomer, unassigned) [Compound 98B]	36.7 nM	11.2 nM	6.03 nM	11.6 nM	0.826 nM	–	–	–
C#Cc1cccc2cc(O)cc(-c3ccc4c(N5CC6CCC(C5)N6)nc(OC[C@@]56CCCN5C[C@H](F)C6)nc4c3)c12 [Compound 96]	–	146 nM	–	–	29.5 nM	394 nM	205 nM	34.2 nM
C#Cc1cccc2cc(O)cc(-c3c(CO)cc4c(N5CC6CCC(C5)N6)nc(OCC5(CN6CCOCC6)CC5)nc4c3F)c12 [Compound 102]	–	74.2 nM	–	–	6.42 nM	1940 nM	82.5 nM	40.4 nM
C#Cc1c(F)ccc2cc(O)cc(-c3c(C(C)C)cc4c(N5CC6CCC(C5)N6)nc(OCC5(CN6CCOCC6)CC5)nc4c3F)c12 [Compound 106]	–	1.3 nM	–	–	0.332 nM	12.8 nM	1.8 nM	8.6 nM
C#Cc1cccc2cc(O)cc(-c3c(F)cc4c(N5CC6CCC(C5)N6)nc(OCC5(CN6CC[S+]([O-])CC6)CC5)nc4c3F)c12 [Compound 89]	–	1940 nM	–	–	20.5 nM	96.6 nM	14.9 nM	> 1000 nM
C#Cc1cccc2cc(O)cc(-c3ccc4c(N5CC6CCC(C5)N6)nc(OCC5(CN(C)CCO)CC5)nc4c3F)c12 [Compound 86]	–	97 nM	–	–	20.9 nM	528 nM	60.3 nM	7.4 nM
C#Cc1cccc2cc(O)cc(-c3c(C(F)(F)F)cc4c(N5CC6CCC(C5)N6)nc(OCC5(CN6CCOCC6)CC5)nc4c3F)c12 (single isomer, unassigned) [Compound 98A]	1440 nM	4260 nM	319 nM	1830 nM	219 nM	–	–	–
Oc1cc(-c2ccc3c(N4CC5CCC(C4)N5)nc(OCC4(CN5CCOCC5)CC4)nc3c2F)c2c(Cl)cccc2c1 [Compound 88]	–	148 nM	–	–	16.7 nM	153 nM	17 nM	35.7 nM
